Columns and labels:
[1] = system: rat; details: cited from earlier work
[2] = system: rat; details: rat model; cited from earlier work
[3] = system: rat; details: cited from earlier work; remark: listed apart in the source
[4] = target: T1, human orexin-1 receptor (Homo sapiens, UniProt O43613); assay: FLIPR intracellular calcium assay, orexin receptor antagonistic activity (OX1); format: cell-based; details: CHO cells expressing human orexin-1 receptor; agonist 3 nM orexin-A; normalized to on-plate reference; * geomean n = 5, *2 geomean n = 2
T1 construct: expressed in transfected cells; host or cells: CHO cells (G418 selection)
T1 sequence (O43613 1-425): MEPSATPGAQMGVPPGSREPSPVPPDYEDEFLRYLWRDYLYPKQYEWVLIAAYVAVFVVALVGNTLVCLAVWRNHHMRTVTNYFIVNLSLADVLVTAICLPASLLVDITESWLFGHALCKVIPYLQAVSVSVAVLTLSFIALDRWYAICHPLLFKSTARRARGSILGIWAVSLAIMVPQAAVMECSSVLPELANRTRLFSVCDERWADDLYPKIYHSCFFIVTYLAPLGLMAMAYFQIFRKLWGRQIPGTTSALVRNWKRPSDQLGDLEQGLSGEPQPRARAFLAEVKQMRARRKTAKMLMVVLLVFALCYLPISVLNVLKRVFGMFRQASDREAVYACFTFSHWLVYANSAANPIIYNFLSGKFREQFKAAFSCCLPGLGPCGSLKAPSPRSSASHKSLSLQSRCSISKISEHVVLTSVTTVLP
How it was run: (§1)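 CHO cells expressing human OX1 or OX2 receptor loaded with fluo-4 AM, then antagonist preincubated 10 min before 3 nM orexin-A. FLIPR peak calcium fluorescence compared with agonist-plus-vehicle response. IC50 normalized to an on-plate reference compound.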

[5] = target: T2, human orexin-2 receptor (Homo sapiens, UniProt O43614); assay: FLIPR intracellular calcium assay, orexin receptor antagonistic activity (OX2); format: cell-based; details: CHO cells expressing human orexin-2 receptor; agonist 3 nM orexin-A; normalized to on-plate reference; * geomean n = 5, *2 geomean n = 2
T2 construct: expressed in transfected cells; host or cells: CHO cells (G418 selection)
T2 sequence (O43614 1-444): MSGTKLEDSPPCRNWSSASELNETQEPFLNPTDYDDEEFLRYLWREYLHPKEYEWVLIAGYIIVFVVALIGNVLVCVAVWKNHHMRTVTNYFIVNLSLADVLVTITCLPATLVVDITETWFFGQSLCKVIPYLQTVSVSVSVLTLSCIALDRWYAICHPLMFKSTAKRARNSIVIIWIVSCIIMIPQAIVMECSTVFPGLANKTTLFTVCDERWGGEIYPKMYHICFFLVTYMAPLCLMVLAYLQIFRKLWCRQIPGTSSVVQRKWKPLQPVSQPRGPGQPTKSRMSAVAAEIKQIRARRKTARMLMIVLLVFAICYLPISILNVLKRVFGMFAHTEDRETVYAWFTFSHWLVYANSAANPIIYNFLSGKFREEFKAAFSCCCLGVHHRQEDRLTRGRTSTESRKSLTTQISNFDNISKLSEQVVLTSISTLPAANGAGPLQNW
How it was run: as §1

| Structure (SMILES) | IC50 [4] | IC50 [5] | alertness (active wake and locomotion) [1] | time spent in REM and NREM sleep [1] | memory function [2] | activity in model of post-traumatic stress disorder [3] |
| --- | --- | --- | --- | --- | --- | --- |
| CNC(=O)[C@@H](c1ccccc1)N1CCc2cc(OC)c(OC)cc2[C@@H]1CCc1ccc(C(F)(F)F)cc1 [(2R)-2-{(1S)-6,7-dimethoxy-1-[2-(4-trifluoromethyl-phenyl)-ethyl]-3,4-dihydro-1H-isoquinolin-2-yl}-N-methyl-2-phenyl-acetamide] |  |  | decrease alertness | dose-dependently increase the time spent in both REM and NREM sleep | enhance memory function | active |
| COc1cccc(OC)c1C1O[C@H](C)C(=O)N1Cc1nc2ccccc2s1 (stereo partly drawn) [Example 62, 3-Benzothiazol-2-ylmethyl-2-(2,6-dimethoxy-phenyl)-(R)-5-methyl-oxazolidin-4-one] | 2.87 µM | 0.193 µM |  |  |  |  |
| CCOc1ccccc1C1OCC(=O)N1Cc1ccc(C(F)(F)F)cc1 (stereo not drawn) [Example 3, 2-(2-Ethoxy-phenyl)-3-(4-trifluoromethyl-benzyl)-oxazolidin-4-one] | 9.99 µM | 0.23 µM |  |  |  |  |
| CCOc1ccccc1C1OCC(=O)N1Cc1ccccc1C (stereo not drawn) [Example 2, 2-(2-Ethoxy-phenyl)-3-(2-methyl-benzyl)-oxazolidin-4-one] | > 10 µM | 0.223 µM |  |  |  |  |
| COc1cccc(OC)c1C1OC(C)(C)C(=O)N1Cc1nc2ccccc2n1C (stereo not drawn) [Example 70, 2-(2,6-Dimethoxy-phenyl)-5,5-dimethyl-3-(1-methyl-1H-benzoimidazol-2-ylmethyl)-oxazolidin-4-one] | 0.065 µM | 1.3 µM |  |  |  |  |
| COc1cccc(F)c1C1OC(C)(C)C(=O)N1Cc1ccc(Oc2ccccc2)cc1 (stereo not drawn) [Example 84, 2-(2-Fluoro-6-methoxy-phenyl)-5,5-dimethyl-3-(4-phenoxy-benzyl)-oxazolidin-4-one] | 0.421 µM | 0.046 µM |  |  |  |  |
| COc1cccc(OC)c1C1OC(C)(C)C(=O)N1Cc1ccc(OC(F)(F)F)c(F)c1 (stereo not drawn) [Example 67, 2-(2,6-Dimethoxy-phenyl)-3-(3-fluoro-4-trifluoromethoxy-benzyl)-5,5-dimethyl-oxazolidin-4-one] | 0.025 µM | 0.322 µM |  |  |  |  |
| CCOc1ccccc1C1OCC(=O)N1Cc1cccc(OC)c1 (stereo not drawn) [Example 4, 2-(2-Ethoxy-phenyl)-3-(3-methoxy-benzyl)-oxazolidin-4-one] | > 10 µM | 0.705 µM |  |  |  |  |

Now from value to compound, other results behind:

| IC50 [4] | IC50 [5] | Structure (SMILES) | alertness (active wake and locomotion) [1] | time spent in REM and NREM sleep [1] | memory function [2] | activity in model of post-traumatic stress disorder [3] |
| --- | --- | --- | --- | --- | --- | --- |
| 0.029 µM | 0.16 µM | COc1cccc(OC)c1C1OC(C)(C)C(=O)N1Cc1ccc(OC(F)(F)F)cc1 (stereo not drawn) [Example 61, 2-(2,6-Dimethoxy-phenyl)-5,5-dimethyl-3-(4-trifluoromethoxy-benzyl)-oxazolidin-4-one] |  |  |  |  |
| 0.025 µM | 0.133 µM | COc1cccc(OC)c1C1OC(C)(C)C(=O)N1Cc1ccc(OC(F)(F)F)c(Cl)c1 (stereo not drawn) [Example 58, 3-(3-Chloro-4-trifluoromethoxy-benzyl)-2-(2,6-dimethoxy-phenyl)-5,5-dimethyl-oxazolidin-4-one] |  |  |  |  |
| 0.114 µM | 0.484 µM | CCCOc1ccc(CN2C(=O)C(C)(C)OC2c2c(OC)cccc2OC)cc1 (stereo not drawn) [Example 77, 2-(2,6-Dimethoxy-phenyl)-5,5-dimethyl-3-(4-propoxy-benzyl)-oxazolidin-4-one] |  |  |  |  |
| 0.12 µM | 0.298 µM | COc1cccc(OC)c1C1OC(C)(C)C(=O)N1Cc1ccc(SC(F)(F)F)cc1 (stereo not drawn) [Example 88, 2-(2,6-Dimethoxy-phenyl)-5,5-dimethyl-3-(4-trifluoromethylsulfanyl-benzyl)-oxazolidin-4-one] |  |  |  |  |
| 0.22 µM | 0.025 µM | COc1cccc(OC)c1C1O[C@H](C)C(=O)N1Cc1ccc(Oc2ccccc2)cc1 (stereo partly drawn) [Example 51, 2-(2,6-Dimethoxy-phenyl)-(R)-5-methyl-3-(4-phenoxy-benzyl)-oxazolidin-4-one] |  |  |  |  |
| 0.542 µM | 0.681 µM | COc1cccc(OC)c1C1OCC(=O)N1Cc1c(C)cc(C)cc1C (stereo not drawn) [Example 41, 2-(2,6-Dimethoxy-phenyl)-3-(2,4,6-trimethyl-benzyl)-oxazolidin-4-one] |  |  |  |  |
| 1.35 µM | 0.099 µM | COc1cccc(OC)c1C1OCC(=O)N1Cc1ccc(OC(F)(F)F)c(F)c1 (stereo not drawn) [Example 48, 2-(2,6-Dimethoxy-phenyl)-3-(3-fluoro-4-trifluoromethoxy-benzyl)-oxazolidin-4-one] |  |  |  |  |
| 3.24 µM | 0.159 µM | COc1cccc(OC)c1C1OCC(=O)N1Cc1ccc(OC(C)C)cc1 (stereo not drawn) [Example 60, 2-(2,6-Dimethoxy-phenyl)-3-(4-isopropoxy-benzyl)-oxazolidin-4-one] |  |  |  |  |
| 0.114 µM | 0.193 µM | COc1cccc(OC)c1C1OC(C)(C)C(=O)N1Cc1ccc(OC(C)C)cc1 (stereo not drawn) [Example 76, 2-(2,6-Dimethoxy-phenyl)-3-(4-isopropoxy-benzyl)-5,5-dimethyl-oxazolidin-4-one] |  |  |  |  |
